Data from patent US10906915B2, “Substituted pyrazoloazepin-4-ones and their use as phosphodiesterase inhibitors” (LEO Pharma A/S, priority 2016, dated 2021).
pIC50: −log10 of the molar value.

Each molecule was assayed against human PDE4D catalytic domain (UniProt no. Q08499) (Homo sapiens (Human), UniProt Q08499) (assay: PDE4 assay (TR-FRET, FAM-cAMP cleavage)). Conditions: human PDE4D catalytic domain; molar concentration giving 50% inhibition of substrate cleavage; read-out: PDE4 IC50 range.
Sequence of human PDE4D catalytic domain (Q08499 380-740 limits assumed): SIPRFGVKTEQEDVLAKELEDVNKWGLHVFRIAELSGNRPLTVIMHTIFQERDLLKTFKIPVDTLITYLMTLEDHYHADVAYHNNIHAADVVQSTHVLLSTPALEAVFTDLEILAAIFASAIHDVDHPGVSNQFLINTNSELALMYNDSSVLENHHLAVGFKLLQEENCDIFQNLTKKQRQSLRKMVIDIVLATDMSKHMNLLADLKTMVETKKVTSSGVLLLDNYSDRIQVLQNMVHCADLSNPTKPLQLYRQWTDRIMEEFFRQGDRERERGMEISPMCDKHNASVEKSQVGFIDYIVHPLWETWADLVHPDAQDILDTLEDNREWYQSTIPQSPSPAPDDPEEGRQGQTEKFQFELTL
Assay type: biochemical
Protocol: The human PDE4D catalytic domain (UniProt no. Q08499 [[…]]) was incubated with a mixture of non-labelled cAMP (cyclic adenosine monophosphate) and fluorescein amidite (FAM) conjugated cAMP and titrated test or reference compound. Following brief incubation the enzymatic reaction was stopped by addition of binding buffer containing nanoparticles with immobilized trivalent metal ions capable of binding 1) AMP phospho groups and 2) terbium (Tb) donor fluorophores. Subsequent excitation of the Tb donor triggers time-resolved FRET to adjacent FAM acceptor molecules resulting in light emission. In the presence of a PDE4 inhibitor, AMP generation was reduced resulting in a lower fluorescence signal. The cAMP phosphodiester is not bound by the detection system.
The results were calculated as the molar concentrations resulting in 50% inhibition of the substrate cleavage compared to controls samples, and are expressed as a range of IC50 (nM).
With `CCc1nn(CCCOC(=O)c2cc(F)cc(OC)c2)c2c1C(=O)NCC1(CCOCC1)C2` [Example 63, 3-(3-ethyl-4-oxo-spiro[6,8-dihydro-5H-pyrazolo[4,3-c]azepine-7,4′-tetrahydropyran]-1-yl)propyl 3-fluoro-5-methoxy-benzoate] the pIC50 was > 7.00. `CCc1nn(CCCOC(=O)c2ccc(OC)cc2F)c2c1C(=O)NCC1(CCOCC1)C2` [Example 64, 3-(3-ethyl-4-oxo-spiro[6,8-dihydro-5H-pyrazolo[4,3-c]azepine-7,4′-tetrahydropyran]-1-yl)propyl 2-fluoro-4-methoxy-benzoate] was tested, and the pIC50 was > 7.00. With `CCc1nn(CCCOC(=O)c2ccc(F)c(OC)c2)c2c1C(=O)NCC1(CCOCC1)C2` [Example 65, 3-(3-ethyl-4-oxo-spiro[6,8-dihydro-5H-pyrazolo[4,3-c]azepine-7,4′-tetrahydropyran]-1-yl)propyl 4-fluoro-3-methoxy-benzoate] the pIC50 was > 7.00. For `CCc1nn(CCCOC(=O)c2cccc(OC)c2F)c2c1C(=O)NCC1(CCOCC1)C2` [Example 66, 3-(3-ethyl-4-oxo-spiro[6,8-dihydro-5H-pyrazolo[4,3-c]azepine-7,4′-tetrahydropyran]-1-yl)propyl 2-fluoro-3-methoxy-benzoate], the pIC50 was > 7.00. In the case of `CCc1nn(CCCOC(=O)c2cc(OC)ccc2F)c2c1C(=O)NCC1(CCOCC1)C2` [Example 67, 3-(3-ethyl-4-oxo-spiro[6,8-dihydro-5H-pyrazolo[4,3-c]azepine-7,4′-tetrahydropyran]-1-yl)propyl 2-fluoro-5-methoxy-benzoate], the pIC50 was > 7.00. In the case of `CCc1nn(CCCOC(=O)c2cc(F)ccc2OC)c2c1C(=O)NCC1(CCOCC1)C2` [Example 68, 3-(3-ethyl-4-oxo-spiro[6,8-dihydro-5H-pyrazolo[4,3-c]azepine-7,4′-tetrahydropyran]-1-yl)propyl 5-fluoro-2-methoxy-benzoate], the pIC50 was > 7.00. In the case of `CCc1nn(CCCOC(=O)c2c(F)cccc2OC)c2c1C(=O)NCC1(CCOCC1)C2` [Example 69, 3-(3-ethyl-4-oxo-spiro[6,8-dihydro-5H-pyrazolo[4,3-c]azepine-7,4′-tetrahydropyran]-1-yl)propyl 2-fluoro-6-methoxy-benzoate], the pIC50 was > 7.00. For `CCc1nn(CCCOC(=O)c2cccc(F)c2OC)c2c1C(=O)NCC1(CCOCC1)C2` [Example 70, 3-(3-ethyl-4-oxo-spiro[6,8-dihydro-5H-pyrazolo[4,3-c]azepine-7,4′-tetrahydropyran]-1-yl)propyl 3-fluoro-2-methoxy-benzoate], the pIC50 was > 7.00. In the case of `CCc1nn(CCCOC(=O)c2ccc(F)cc2OC)c2c1C(=O)NCC1(CCOCC1)C2` [Example 71, 3-(3-ethyl-4-oxo-spiro[6,8-dihydro-5H-pyrazolo[4,3-c]azepine-7,4′-tetrahydropyran]-1-yl)propyl 4-fluoro-2-methoxy-benzoate], the pIC50 was > 7.00. For `CCc1nn(CCCOC(=O)c2ccc(C)c(Cl)c2)c2c1C(=O)NCC1(CCOCC1)C2` [Example 72, 3-(3-ethyl-4-oxo-spiro[6,8-dihydro-5H-pyrazolo[4,3-c]azepine-7,4′-tetrahydropyran]-1-yl)propyl 3-chloro-4-methyl-benzoate], the pIC50 was > 7.00. In the case of `CCc1nn(CCCOC(=O)c2ccc(C)cc2Cl)c2c1C(=O)NCC1(CCOCC1)C2` [Example 73, 3-(3-ethyl-4-oxo-spiro[6,8-dihydro-5H-pyrazolo[4,3-c]azepine-7,4′-tetrahydropyran]-1-yl)propyl 2-chloro-4-methyl-benzoate], the pIC50 was > 7.00. For `CCc1nn(CCCOC(=O)c2cccc(Cl)c2C)c2c1C(=O)NCC1(CCOCC1)C2` [Example 74, 3-(3-ethyl-4-oxo-spiro[6,8-dihydro-5H-pyrazolo[4,3-c]azepine-7,4′-tetrahydropyran]-1-yl)propyl 3-chloro-2-methyl-benzoate], the pIC50 was > 7.00. In the case of `CCc1nn(CCCOC(=O)c2cc(Cl)ccc2C)c2c1C(=O)NCC1(CCOCC1)C2` [Example 75, 3-(3-ethyl-4-oxo-spiro[6,8-dihydro-5H-pyrazolo[4,3-c]azepine-7,4′-tetrahydropyran]-1-yl)propyl 5-chloro-2-methyl-benzoate], the pIC50 was > 7.00. For `CCc1nn(CCCOC(=O)c2ccc(C(F)F)cc2)c2c1C(=O)NCC1(CCOCC1)C2` [Example 76, 3-(3-ethyl-4-oxo-spiro[6,8-dihydro-5H-pyrazolo[4,3-c]azepine-7,4′-tetrahydropyran]-1-yl)propyl 4-(difluoromethyl)benzoate], the pIC50 was > 7.00. `CCc1nn(CCCOC(=O)c2ccc(F)cc2Cl)c2c1C(=O)NCC1(CCOCC1)C2` [Example 77, 3-(3-ethyl-4-oxo-spiro[6,8-dihydro-5H-pyrazolo[4,3-c]azepine-7,4′-tetrahydropyran]-1-yl)propyl 2-chloro-4-fluoro-benzoate] was tested, and the pIC50 was > 7.00. With `CCc1nn(CCCOC(=O)c2cccc(Cl)c2F)c2c1C(=O)NCC1(CCOCC1)C2` [Example 78, 3-(3-ethyl-4-oxo-spiro[6,8-dihydro-5H-pyrazolo[4,3-c]azepine-7,4′-tetrahydropyran]-1-yl)propyl 3-chloro-2-fluoro-benzoate] the pIC50 was > 7.00. With `CCc1nn(CCCOC(=O)c2cc(F)cc(Cl)c2)c2c1C(=O)NCC1(CCOCC1)C2` [Example 79, 3-(3-ethyl-4-oxo-spiro[6,8-dihydro-5H-pyrazolo[4,3-c]azepine-7,4′-tetrahydropyran]-1-yl)propyl 3-chloro-5-fluoro-benzoate] the pIC50 was > 7.00. For `CCc1nn(CCCOC(=O)c2c(F)cccc2Cl)c2c1C(=O)NCC1(CCOCC1)C2` [Example 80, 3-(3-ethyl-4-oxo-spiro[6,8-dihydro-5H-pyrazolo[4,3-c]azepine-7,4′-tetrahydropyran]-1-yl)propyl 2-chloro-6-fluoro-benzoate], the pIC50 was > 7.00. `CCc1nn(CCCOC(=O)c2ccc(Cl)c(F)c2)c2c1C(=O)NCC1(CCOCC1)C2` [Example 81, 3-(3-ethyl-4-oxo-spiro[6,8-dihydro-5H-pyrazolo[4,3-c]azepine-7,4′-tetrahydropyran]-1-yl)propyl 4-chloro-3-fluoro-benzoate] was tested, and the pIC50 was > 7.00. `CCc1nn(CCCOC(=O)c2cc(F)ccc2Cl)c2c1C(=O)NCC1(CCOCC1)C2` [Example 82, 3-(3-ethyl-4-oxo-spiro[6,8-dihydro-5H-pyrazolo[4,3-c]azepine-7,4′-tetrahydropyran]-1-yl)propyl 2-chloro-5-fluoro-benzoate] was tested, and the pIC50 was > 7.00. In the case of `CCc1nn(CCCOC(=O)c2cc(Cl)ccc2F)c2c1C(=O)NCC1(CCOCC1)C2` [Example 83, 3-(3-ethyl-4-oxo-spiro[6,8-dihydro-5H-pyrazolo[4,3-c]azepine-7,4′-tetrahydropyran]-1-yl)propyl 5-chloro-2-fluoro-benzoate], the pIC50 was > 7.00. `CCc1nn(CCCOC(=O)c2ccc(F)c(Cl)c2)c2c1C(=O)NCC1(CCOCC1)C2` [Example 84, 3-(3-ethyl-4-oxo-spiro[6,8-dihydro-5H-pyrazolo[4,3-c]azepine-7,4′-tetrahydropyran]-1-yl)propyl 3-chloro-4-fluoro-benzoate] was tested, and the pIC50 was > 7.00. `CCc1nn(CCCOC(=O)c2ccc(Cl)cc2F)c2c1C(=O)NCC1(CCOCC1)C2` [Example 85, 3-(3-ethyl-4-oxo-spiro[6,8-dihydro-5H-pyrazolo[4,3-c]azepine-7,4′-tetrahydropyran]-1-yl)propyl 4-chloro-2-fluoro-benzoate] was tested, and the pIC50 was > 7.00. For `CCc1nn(CCCOC(=O)c2ccc(OC)c(Cl)c2)c2c1C(=O)NCC1(CCOCC1)C2` [Example 86, 3-(3-ethyl-4-oxo-spiro[6,8-dihydro-5H-pyrazolo[4,3-c]azepine-7,4′-tetrahydropyran]-1-yl)propyl 3-chloro-4-methoxy-benzoate], the pIC50 was > 7.00. `CCc1nn(CCCOC(=O)c2ccc(Cl)c(OC)c2)c2c1C(=O)NCC1(CCOCC1)C2` [Example 87, 3-(3-ethyl-4-oxo-spiro[6,8-dihydro-5H-pyrazolo[4,3-c]azepine-7,4′-tetrahydropyran]-1-yl)propyl 4-chloro-3-methoxy-benzoate] was tested, and the pIC50 was > 7.00. In the case of `CCc1nn(CCCOC(=O)c2cc(Cl)cc(OC)c2)c2c1C(=O)NCC1(CCOCC1)C2` [Example 88, 3-(3-ethyl-4-oxo-spiro[6,8-dihydro-5H-pyrazolo[4,3-c]azepine-7,4′-tetrahydropyran]-1-yl)propyl 3-chloro-5-methoxy-benzoate], the pIC50 was > 7.00. With `CCc1nn(CCCOC(=O)c2ccc(OC)cc2Cl)c2c1C(=O)NCC1(CCOCC1)C2` [Example 89, 3-(3-ethyl-4-oxo-spiro[6,8-dihydro-5H-pyrazolo[4,3-c]azepine-7,4′-tetrahydropyran]-1-yl)propyl 2-chloro-4-methoxy-benzoate] the pIC50 was > 7.00. With `CCc1nn(CCCOC(=O)c2cc(OC)ccc2Cl)c2c1C(=O)NCC1(CCOCC1)C2` [Example 90, 3-(3-ethyl-4-oxo-spiro[6,8-dihydro-5H-pyrazolo[4,3-c]azepine-7,4′-tetrahydropyran]-1-yl)propyl 2-chloro-5-methoxy-benzoate] the pIC50 was > 7.00. In the case of `CCc1nn(CCCOC(=O)c2cccc(OC)c2Cl)c2c1C(=O)NCC1(CCOCC1)C2` [Example 91, 3-(3-ethyl-4-oxo-spiro[6,8-dihydro-5H-pyrazolo[4,3-c]azepine-7,4′-tetrahydropyran]-1-yl)propyl 2-chloro-3-methoxy-benzoate], the pIC50 was > 7.00. `CCc1nn(CCCOC(=O)c2ccc(Cl)cc2OC)c2c1C(=O)NCC1(CCOCC1)C2` [Example 92, 3-(3-ethyl-4-oxo-spiro[6,8-dihydro-5H-pyrazolo[4,3-c]azepine-7,4′-tetrahydropyran]-1-yl)propyl 4-chloro-2-methoxy-benzoate] was tested, and the pIC50 was > 7.00.
